Reference: ChEMBL document CHEMBL5518178 (Eur J Med Chem, 2024)
Calls of active or inactive are those of the source. The calls are words filed in the database; no cut-off is given here.

Columns and labels:
Tubulin (Homo sapiens) [1] = target: T1, Tubulin (Homo sapiens) (UniProt P68371+Q9H4B7+P0DPH7+P68366+Q13509+Q71U36+P04350+Q3ZCM7+P07437+P68363+Q9BQE3+Q6PEY2+Q13885+Q9BVA1+Q9BUF5); experiment: Inhibition of tubulin polymerization (unknown origin) at 1 to 3 uM by fluorescence plate reader analysis; format: protein-complex assay; settings: dose 1-3 µM
[2] = target: Tubulin beta (Homo sapiens) (UniProt P68371+Q9H4B7+Q13509+P04350+Q3ZCM7+P07437+Q13885+Q9BVA1+Q9BUF5+A6NNZ2); experiment: Binding affinity to beta-tubulin (unknown origin) colchicine binding site assessed as reduction in beta-tubulin-EBI adduct at 10 to 30 uM incubated for 2 hrs in presence of EBI by Western blotting; format: protein assay; settings: dose 10-30 µM
Tubulin (Homo sapiens) [3] = target: T1, Tubulin (Homo sapiens); experiment: Inhibition of tubulin polymerization in human MGC-803 cells assessed as reduction in filamentous microtubule structure formation at 10 to 40 nmol/L incubated for 48 hrs by DAPI staining based fluorescence microscopic analysis; format: cell-based; settings: dose 10-40 nmol/L
MGC-803 [4] = experiment: Induction of apoptosis in human MGC-803 cells assessed as early apoptotic cells at 20 nmol/L incubated for 48 hrs by Annexin V-FITC/propidium iodide staining based flow cytometer analysis (reference value: 4.38 %); format: functional
MGC-803 [5] = experiment: Induction of apoptosis in human MGC-803 cells assessed as late apoptotic cells at 20 nmol/L incubated for 48 hrs by Annexin V-FITC/propidium iodide staining based flow cytometer analysis (reference value: 2.22 %); format: functional
MGC-803 [6] = experiment: Induction of apoptosis in human MGC-803 cells assessed as necrotic cells at 20 nmol/L incubated for 48 hrs by Annexin V-FITC/propidium iodide staining based flow cytometer analysis (reference value: 0.32 %); format: functional
MGC-803 [7] = experiment: Induction of apoptosis in human MGC-803 cells assessed as early apoptotic cells at 40 nmol/L incubated for 48 hrs by Annexin V-FITC/propidium iodide staining based flow cytometer analysis (reference value: 4.38 %); format: functional
MGC-803 [8] = experiment: Induction of apoptosis in human MGC-803 cells assessed as necrotic cells at 40 nmol/L incubated for 48 hrs by Annexin V-FITC/propidium iodide staining based flow cytometer analysis (reference value: 0.32 %); format: functional
MGC-803 [9] = experiment: Induction of apoptosis in human MGC-803 cells assessed as caspase-7 cleavage at 10 to 40 nmol/L incubated for 48 hrs by Western blotting; format: functional, cell-based; settings: dose 10-40 nmol/L
MGC-803 [10] = experiment: Induction of apoptosis in human MGC-803 cells assessed as caspase-9 cleavage at 10 to 40 nmol/L incubated for 48 hrs by Western blotting; format: functional, cell-based; settings: dose 10-40 nmol/L
MGC-803 [11] = experiment: Induction of apoptosis in human MGC-803 cells assessed as increase in cleaved PARP at 10 to 40 nmol/L incubated for 48 hrs by Western blotting; format: functional, cell-based; settings: dose 10-40 nmol/L
MGC-803 [12] = experiment: Anti-migratory activity against human MGC-803 cells assessed as inhibition of cell migration at 10 to 30 nmol/L measured for 48 hrs by crystal-violet staining based transwell migration assay; format: functional; settings: dose 10-30 nmol/L
MGC-803 [13] = experiment: Anti-migratory activity against human MGC-803 cells assessed as decrease in MMP-2 level at 10 to 40 nmol/L by Western blotting; format: functional, cell-based; settings: dose 10-40 nmol/L
MGC-803 [14] = experiment: Anti-migratory activity against human MGC-803 cells assessed as decrease in MMP-9 level at 10 to 40 nmol/L by Western blotting; format: functional, cell-based; settings: dose 10-40 nmol/L
MGC-803 [15] = experiment: Antitumor activity against human MGC-803 cells xenografted in BALB/c-nude mouse assessed as tumor growth inhibition at 30 mg/kg/day, ip administered for 18 days relative to control; format: functional; settings: MGC-803, 432 h, time 18 day, read-out: TGI
[16] = Toxicity in BALB/c-nude mouse xenografted with human MGC-803 cells assessed as alteration in heart tissue at 30 mg/kg/day, ip administered for 18 days by hematoxylin and eosin staining based analysis; format: organism-based; settings: in vivo, 432 h, time 18 day
[17] = Toxicity in BALB/c-nude mouse xenografted with human MGC-803 cells assessed as alteration in lung tissue at 30 mg/kg/day, ip administered for 18 days by hematoxylin and eosin staining based analysis; format: organism-based; settings: in vivo, 432 h, time 18 day

COc1ccc2c(c1)CCCN2c1cc(=O)oc2ccccc12
inhibition (Tubulin (Homo sapiens) [1]): Active | Activity [2]: Active | inhibition (Tubulin (Homo sapiens) [3]): Active | Activity (MGC-803 [4]): 9.14% | Activity (MGC-803 [5]): 2.7% | Activity (MGC-803 [6]): 0.12% | Activity (MGC-803 [7]): 41.97% | Activity (MGC-803 [8]): 1.3% | Activity (MGC-803 [9]): Active | Activity (MGC-803 [10]): Active | Activity (MGC-803 [11]): Active | Activity (MGC-803 [12]): Active | Activity (MGC-803 [13]): Active | Activity (MGC-803 [14]): Active | inhibition in vivo at 30 mg/kg/day (MGC-803 [15]): 65.5% | Activity [16]: Non-Toxic | Activity [17]: Non-Toxic
